3 molecules from patent US20080064679A1, “Water Soluble Cannabinoids” (priority 2004, published 2008) can be followed below.

Series [1] deals with T1, human CB1 receptor (Homo sapiens, UniProt P21554).
T1 construct: expressed in transfected cells; b94 says CHO for CB1
As to the kind of experiment: [35S]GTPγS binding assay in membranes of CB1 expressing cells. It counts as biochemical. Conditions: for EC50: mean±SEM; for Emax: maximal GTPγS binding as percentage of stimulation produced by CP 55,940, read-out: CB1 % CP Stim. As to the method:
(§1) For the in vivo studies, the drugs were dissolved in either saline or emulphor:ethanol:saline (E:E:S) as indicated.
cLogP calculations. Absolute solubility determinations were not performed. Rather, cLogP calculations were performed using the CS ChemDraw Ultra software (Cambridge Soft Corporation, Cambridge, Mass.). Receptor Binding. HEK-293 cells stably expressing the human CB1 receptor were cultured in DMEM with 10% FBS and Chinese Hamster Ovary (CHO) cells stably expressing the human CB2 receptor were cultured in DMEM with 10% FCS. Cells were harvested by replacement of the media with cold phosphate-buffered saline containing 1 mM EDTA followed by centrifugation at 1000×g for 5 min at 4° C. The pellet was resuspended in 50 mM Tris-HCl containing 320 mM sucrose, 2 mM EDTA and 5 mM MgCl2 (pH 7.4) (centrifugation buffer), then centrifuged at 1000×g for 10 min at 4° C., and the resulting supernatant was saved. This process was repeated twice. The supernatant fractions were combined and centrifuged at 40,000×g for 30 min at 4° C. The resulting P2 pellet was resuspended in assay buffer (50 mM Tris-HCl (pH 7.4), 3 mM MgCl2, 0.2 mM EGTA, and 100 mM NaCl) and protein was determined by the method of Bradford ENRfu(Bradford 1976). Membranes were stored at −80° C. until use. […] The assay was incubated at 30° C. for 1 hr and terminated by addition of ice cold 50 mM Tris-HCl plus BSA (1 mg/ml) (pH 7.4) followed by filtration under vacuum through Whatman GF/B glass fiber filters with 3 washes with cold Tris buffer. Bound radioactivity was determined by liquid scintillation spectrophotometry at 50% efficiency after extraction by shaking samples for 30-60 min with Budget-Solve scintillation fluid. Data are reported as the mean±SEM of three experiments, each performed in triplicate. Ki values were calculated from displacement data using EBDA (Equilibrium Binding Data Analysis; BIOSOFT, Milltown, N.J.). [^35S]GTPγS Binding Assays. Concentration-effect curves were generated by incubating membranes (10 μg prepared from CB1 expressing cells as described above) in assay buffer containing BSA (1 mg/ml) with various concentrations of test compounds in the presence of 20 μM GDP and 0.1 nM [^35S]GTPγS in a 1 ml total volume. […] Basal binding was assessed in the absence of agonist, and nonspecific binding was measured in the presence of 10 μM GTPγS. The reaction was incubated for 90 min at 30° C. and terminated by filtration under vacuum through Whatman GF/B glass fiber filters with 3 washes with cold (4° C.) Tris buffer (50 mM Tris-HCl, pH 7.4). Bound radioactivity was determined by liquid scintillation spectrophotometry at 95% efficiency after extraction overnight in ScintiSafe Econo 1 scintillation fluid. Data are reported as mean±SEM of three experiments, each performed in triplicate. Nonlinear regression analysis was conducted by iterative fitting using JMP (SAS for Macintosh). Net-stimulated [^35S]GTPγS binding is defined as [^35S]GTPγS binding in the presence of drug minus basal and percent stimulation is expressed as (net stimulated [^35S]GTPγS binding/basal)×100%. Behavioral Evaluations. All animals were allowed to acclimate to the observation room overnight. Behavioral effects were assessed in the tetrad model in order to measure potency in producing antinociception, catalepsy, hypothermia, and hypomobility. The baselines for tail-flick latency (2-4 seconds) and rectal temperature were determined prior to i.v. injections. Baseline rectal temperatures were measured using a telethermometer and a thermometer probe inserted to 25 mm (Yellow Springs Instrument Co., Yellow Springs, Ohio). The mice were then given either an i.v. i.c.v. injection of the analog. The mice were placed in individual photocell activity chambers 5 min later. Spontaneous activity was monitored for 10 min in a Digiscan Animal Activity Monitor (Omnitech Electronice, Inc., Columbus, Ohio) as measured by the number of interruptions of 16 photocell beams per chamber.
(GTPγS resists hydrolysis and so accumulates on activated G proteins.)

Series [2] relates to mice. Kind of series: Tail-flick antinociception (T.F.), mouse tetrad. It counts as in vivo. Conditions: for ED50: Mus musculus, mice.
In series [3] the test system is mice. Kind of series: Rectal temperature (R.T.), mouse tetrad. Conditions: Mus musculus. The series is classed as in vivo.
For series [4], the system named is mice. As to the kind of experiment: Relative immobility (R.I.), ring-immobility test, mouse tetrad. The series is classed as in vivo. Conditions: Mus musculus.
How the values of series [5] were obtained:
By “water-soluble” we mean that 1 mg of material in 1 ml of water gives a clear solution and is water miscible.
as §1

Setting [6] is: iv, figure legends, i.v., vehicle 1:1:18 ethanol:emulphor:saline, read-out: ED50 after i.v. administration, tail-flick.
Setting [7] is: iv, i.v., vehicle E:E:S (1:1:18), read-out: T.F. ED50 (antinociception in the tail-flick procedure).
Where [8] appears, read: iv, figure legends, i.v., vehicle 1:1:18 ethanol:emulphor:saline, read-out: ED50 after i.v. administration, rectal temperature.
Where [9] appears, read: iv, vehicle E:E:S (1:1:18), read-out: R.T. ED50 (lowering rectal temperature).
Setting [10] is: iv, figure legends, i.v., vehicle 1:1:18 ethanol:emulphor:saline, read-out: ED50 after i.v. administration, relative immobility.
The mark [11] stands for this setting: iv, vehicle E:E:S (1:1:18), read-out: R.I. ED50 (relative immobility).

Molecules are shown by their SMILES. Read-outs that look alike come from different tables or passages of the source.

T1 sequence (P21554 whole entry): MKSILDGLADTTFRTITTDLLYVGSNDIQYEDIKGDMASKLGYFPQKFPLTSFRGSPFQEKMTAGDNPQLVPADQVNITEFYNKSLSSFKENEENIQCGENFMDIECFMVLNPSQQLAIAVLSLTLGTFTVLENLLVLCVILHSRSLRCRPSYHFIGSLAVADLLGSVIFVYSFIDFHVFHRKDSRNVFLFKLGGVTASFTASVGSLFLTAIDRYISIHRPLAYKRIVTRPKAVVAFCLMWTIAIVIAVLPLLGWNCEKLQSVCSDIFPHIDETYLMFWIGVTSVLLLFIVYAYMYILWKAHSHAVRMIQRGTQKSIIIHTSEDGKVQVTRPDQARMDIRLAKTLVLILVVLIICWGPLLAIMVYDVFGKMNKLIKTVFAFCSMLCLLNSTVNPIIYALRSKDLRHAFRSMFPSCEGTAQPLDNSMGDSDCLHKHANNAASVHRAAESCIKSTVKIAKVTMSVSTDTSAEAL

As to `CC1=CC[C@@H]2C(C1)c1c(OC(=O)CCCN(C(C)C)C(C)C)cc(C(C)(C)CCCCC(=O)N3CCOCC3)cc1OC2(C)C` (some centres unmarked) [O-2694, Diisopropylaminobutyrate of Δ^8-THC-3-(1,1-dimethyl-6-morpholin-4-yl-6-oxo-hexyl)], in series [1] ([35S]GTPγS binding, read-out: CB1 EC50), the EC50 came out at 0.0283 ± 0.00347 µM. Besides, the Emax in series [1] turned out to be 120 ± 8.04%. The ED50 in series [2] (Table 4b, vehicle not indicated, read-out: T.F. ED50 (antinociception in the tail-flick procedure)) is 0.035 µmol/kg; in series [3] (Table 4b, vehicle not indicated, read-out: R.T. ED50 (lowering rectal temperature)) it was 0.12 µmol/kg; in series [4] (Table 4b, vehicle not indicated, read-out: R.I. ED50 (relative immobility)), 0.11 µmol/kg. In series [5] (1 mg of analog in 1 ml of water, visual observation), the “Solubility (water-soluble)” value is given as “Yes”.

`CC1=CC[C@@H]2[C@@H](C1)c1c(O)cc(C(C)(C)CCCCn3cccn3)cc1OC2(C)C` [O-2715, Pyrazol-1-yl] returned an EC50 in series [1] (CB1 EC50, [35S]GTPγS binding) of 0.00403 ± 0.00028 µM. In addition, the Emax in series [1] amounted to 93 ± 1.75%. For the same molecule, the ED50 in series [2] (setting [6]) amounted to 0.06 µmol/kg; in series [2] (setting [7]) it was 0.06 µmol/kg; in series [3] (setting [8]) it was 0.14 µmol/kg; in series [3] (setting [9]) it was 0.14 µmol/kg; in series [4] (setting [10]) it was 0.07 µmol/kg; in series [4] (setting [11]) it was 0.07 µmol/kg. Moreover, the “Analgesia in the tail-flick procedure” value in series [2] (oral 10 mg/kg, at one hr) is on record as 21±6%. Moreover, the “Solubility (water-soluble)” value in series [5] was “No”.

In series [1] (CB1 EC50, [35S]GTPγS binding), `CC1=CC[C@@H]2[C@@H](C1)c1c(O)cc(C(C)(C)CCCCn3cncn3)cc1OC2(C)C` [O-2716, 1,2,4-Triazol-1-yl] came in with an EC50 of 0.0368 ± 0.00423 µM. For the same molecule, in series [1], the Emax stood at 93.1 ± 1.65%. For the same molecule, the ED50 in series [2] (setting [6]) worked out at 0.09 µmol/kg; in series [2] (setting [7]) it was 0.09 µmol/kg; in series [3] (setting [8]), 0.15 µmol/kg; in series [3] (setting [9]), 0.15 µmol/kg; in series [4] (setting [10]), 0.2 µmol/kg; in series [4] (setting [11]), 0.2 µmol/kg. Also, in series [2] (oral, maximum dose tested 10 mg/kg, 30 minutes before testing), the “Antinociception following oral administration” value is given as “failed to produce complete antinociception”. Further, the “Solubility (water-soluble)” value in series [5] is “No”.

One may read the EC50 as the concentration needed to bring the measured effect to its halfway point.
